Tests used:
C. albicans = format: in vivo; settings: immunocompromised mice; for Survival rate: 7 days after fatal dose of C. albicans by tail vein at week 8; for Survival number after 7 days: fatal dose of C. albicans by tail vein at week 8, 20 mice per group, fluconazole 50 mg/kg d intragastric for 7 days
[1] = system: Th17 cells (cytokine IL-17F); settings: in words; after immunization vs. blank control group
Procedure: The effectiveness of the vaccine was studied by using an immunocompromised (neutropenia) mouse model. […] To investigate the T cell-mediated immune response, mouse blood was taken and detected for a change in cytokine IL-17F level in Th17 cells to evaluate the immunogenicity of chitosan oligosaccharide-carrier protein vaccine.
6-8-week-old Balb/c female mice were selected, and adaptively fed for 3-7 d. 20 g/L cyclophosphamide was prepared with normal saline, and the cyclophosphamide was injected intraperitoneally by body weight of 200 mg/kg. The number of neutrophils in the mouse blood was measured by a SYSMEX XT-2000i automatic blood analyzer after 3 days. If the number of the neutrophils was <500/mm^3, the experiment could be continued. After that, the cyclophosphamide was injected every 10 days at a dose of 150 mg/kg, which was maintained throughout the test period.
A normal saline blank control group, a KLH group, a chitosan oligosaccharide group, a chitosan oligosaccharide-KLH group in Example 6, a fluconazole group (as a positive control of a challenge test) were set up, with 10 mice in each group. At weeks 0, 2, 4 and 6 at the start of the experiment, the mice were injected subcutaneously from multiple points on the neck and back, with an injection amount of 2.5 mg/kg. The normal saline blank group was injected with normal saline, and the fluconazole group was not injected. […]

| Molecule | Survival rate (C. albicans) | Survival number after 7 days (C. albicans) | Change of proportion of intracellular IL-17F compared with blank control group [1] |
| --- | --- | --- | --- |
| OC(Cn1cncn1)(Cn1cncn1)c1ccc(F)cc1F [Fluconazole, fluconazole, reference compound] | 50% | 10 | – |
| keyhole limpet hemocyanin [KLH] | 30% | 6 | increased to a certain extent |
